We go through 1 compound from patent US8129366B2, “VLA-4 inhibitory drug” (Daiichi Sankyo Company, Limited, priority 2005, dated 2012).

The Ki is the dissociation constant of the complex between target and ligand, obtained from inhibition or displacement. Usually IC50 stands for the concentration that inhibits the measured activity by half.

The test system of series [1] is eosinophile infiltration in mice actively sensitized with ascaris. Nature of the series: Test for eosinophile infiltration in mice actively sensitized with ascaris, once-a-day administration. Type of series: in vivo. The following applies: orally 5 mg/kg once a day. As for the experimental part:
(§1) Test for eosinophile infiltration in mice actively sensitized with ascaris (antigen to pig roundworm):
In the same manner as in Evaluation Example 2, the substances under test were orally administered once a day, in an amount of 5 mg/kg for compound A (representative compound of WO 02/053534) and the compound of Example 58, and in an amount of 0.8 mg/kg of the compound of Example 161, and an evaluation was performed in the same manner as in Evaluation Example 2.

The test system is the same in series [2]. Nature of the series: Test for eosinophile infiltration in mice actively sensitized with ascaris, administered two times a day. The series is classed as in vivo. The following applies: orally 5 mg/kg two times a day. The protocol:
as §1
It has been reported that infiltration of eosinophilic cells is induced by active sensitization with ascaris {Int. Arch. Immuno., 108, 11-18 (1995)}. An evaluation of the compounds under test was performed according to the evaluation method described herein. The substance under test was orally administered in an amount of 5 mg/kg, two times a day. The total cell count and the eosinophile count in BALF of 48 hours after sensitization were calculated, and the effects were determined by comparing with the group not administered with the substance under test.

Series [3] addresses T1, hα4 and β1 integrins (Homo sapiens, UniProt P05556+P13612).
T1 construct: expressed in transfected cells; host or cells: CHO cells
Nature of the series: In vitro inhibition of binding between CHO cells expressing hα4 and β1 integrins and Eu3+-hVCAM-1 D1D7-IgG. In short, it runs like this: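 Bound europium-labelled VCAM-1 D1D7-IgG on α4β1-expressing CHO cells was measured by time-resolved fluorescence after washing at 4 °C. Ligand (2 nM working dilution) and test compound, with or without 3% final HSA, were co-incubated for 1 h at room temperature in Mn²⁺-containing HEPES buffer, pH 7.5. IC50 came from % binding inhibition; Ki was calculated from ligand concentration and Scatchard Kd.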

The nature of series [4]: Test for pharmacokinetics and oral absorbability in monkeys. The settings on record: orally 0.5 mg/kg, single agent. The series is classed as in vivo. As for the experimental part: The pharmacokinetic parameters in the case of orally administering (0.5 mg/kg, single agent) the substance under test to monkeys, were as follows.

SMILES strings stand for the structures.

T1 sequence (P13612 34-1032): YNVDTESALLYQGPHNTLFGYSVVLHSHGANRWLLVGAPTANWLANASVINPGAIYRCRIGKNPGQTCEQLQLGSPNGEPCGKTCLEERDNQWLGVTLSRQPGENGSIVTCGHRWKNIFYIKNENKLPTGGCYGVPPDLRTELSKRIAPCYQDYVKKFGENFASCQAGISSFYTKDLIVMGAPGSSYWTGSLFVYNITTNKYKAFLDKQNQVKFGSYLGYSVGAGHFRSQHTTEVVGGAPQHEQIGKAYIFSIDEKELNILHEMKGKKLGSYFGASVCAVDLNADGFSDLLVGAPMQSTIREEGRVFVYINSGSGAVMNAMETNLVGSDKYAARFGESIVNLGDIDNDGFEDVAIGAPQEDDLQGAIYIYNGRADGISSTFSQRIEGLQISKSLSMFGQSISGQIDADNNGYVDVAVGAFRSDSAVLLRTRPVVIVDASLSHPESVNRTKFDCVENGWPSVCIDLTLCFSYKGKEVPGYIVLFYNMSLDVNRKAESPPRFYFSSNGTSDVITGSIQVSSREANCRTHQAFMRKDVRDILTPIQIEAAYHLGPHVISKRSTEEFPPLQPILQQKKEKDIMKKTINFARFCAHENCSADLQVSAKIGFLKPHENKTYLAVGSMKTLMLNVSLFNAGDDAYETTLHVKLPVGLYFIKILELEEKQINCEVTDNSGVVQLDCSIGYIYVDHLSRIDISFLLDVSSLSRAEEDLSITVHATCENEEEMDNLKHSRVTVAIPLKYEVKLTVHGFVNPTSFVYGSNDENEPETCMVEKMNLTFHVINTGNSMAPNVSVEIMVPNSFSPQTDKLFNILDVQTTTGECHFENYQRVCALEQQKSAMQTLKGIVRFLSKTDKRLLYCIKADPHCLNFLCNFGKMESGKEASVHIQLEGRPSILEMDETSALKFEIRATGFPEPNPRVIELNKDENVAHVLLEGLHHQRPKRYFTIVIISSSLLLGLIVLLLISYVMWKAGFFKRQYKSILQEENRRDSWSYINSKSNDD
T1 sequence (P05556 21-798): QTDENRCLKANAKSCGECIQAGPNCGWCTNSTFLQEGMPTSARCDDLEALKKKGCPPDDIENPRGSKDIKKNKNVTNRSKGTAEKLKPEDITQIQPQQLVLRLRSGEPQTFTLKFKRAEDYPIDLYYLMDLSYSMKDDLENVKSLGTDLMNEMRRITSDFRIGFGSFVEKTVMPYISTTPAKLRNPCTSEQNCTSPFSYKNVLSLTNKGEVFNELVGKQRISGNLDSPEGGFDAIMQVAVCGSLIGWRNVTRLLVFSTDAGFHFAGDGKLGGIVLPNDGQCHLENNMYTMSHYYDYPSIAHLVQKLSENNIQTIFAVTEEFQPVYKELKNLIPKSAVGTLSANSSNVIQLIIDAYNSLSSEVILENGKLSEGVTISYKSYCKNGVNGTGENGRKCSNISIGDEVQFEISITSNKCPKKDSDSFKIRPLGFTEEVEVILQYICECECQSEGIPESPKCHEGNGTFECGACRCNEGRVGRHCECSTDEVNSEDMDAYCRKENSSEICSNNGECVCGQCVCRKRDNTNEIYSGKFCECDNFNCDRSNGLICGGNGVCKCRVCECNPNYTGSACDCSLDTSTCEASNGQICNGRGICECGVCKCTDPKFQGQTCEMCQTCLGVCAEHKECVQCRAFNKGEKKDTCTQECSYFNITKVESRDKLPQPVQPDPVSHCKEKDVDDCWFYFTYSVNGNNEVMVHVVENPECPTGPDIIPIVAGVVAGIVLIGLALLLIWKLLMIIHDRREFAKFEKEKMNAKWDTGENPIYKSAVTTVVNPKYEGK

`CO[C@H]1CN([C@H]2C[C@@H](CO[C@H]3CC[C@H](C(=O)O)CC3)N(C(=O)Cc3cc(Cl)c(NC(=O)c4csc5ccccc45)cc3Cl)C2)C[C@H]1OC` [Example 58, Trans-4-[1-[[4-[(benzo[b]thiophen-3-ylcarbonyl)amino]-2,5-dichlorophenyl]acetyl]-(4S)-(cis-3,4-dimethoxypyrrolidin-1-yl)-(2S)-pyrrolidinylmethoxy]cyclohexanecarboxylic acid]: the entries for the “Average total eosinophile count (×10^5) of (ascaris-sensitized + substance under test) group” value in series [1] and in series [2] (BALF 48 hours after sensitization) were 1.73 ×10^5 and 1.63 ×10^5, respectively. For the same compound, the inhibition in vivo at 5 mg/kg in series [2] (Mus musculus, po, eosinophile count in BALF 48 hours after sensitization vs ascaris-sensitized group, read-out: suppression rate (%)) turned out to be 63%. The compound further had a Ki in series [3] (CHO cells expressing hα4 and β1 integrins, Eu3+-hVCAM-1 D1D7-IgG ligand, without HSA) of 1.5 nM. Moreover, the IC50 in series [3] (in the presence of 3% human serum albumin (HSA final concentration 3%)) turned out to be 9.3 nM. Also, the “Cltot (mL/min/kg): apparent plasma clearance” value in series [4] was determined as 2.0 mL/min/kg. Besides, in series [4] (plasma, LC/MS/MS), the “AUC (ng · h/ml): total area under the plasma concentration versus time curve” value was 7555 ng·h/mL.
